Measured values taken from article PMC6222614, “Disubstituted 4-Chloro-3-nitrophenylthiourea Derivatives: Antimicrobial and Cytotoxic Studies” (Molecules : A Journal of Synthetic Chemistry and Natural …, 2018).
Where two headings read alike, the source gives them in different places.

Assays:
CRL7065 = assay: Antiproliferative assay (MTT), normal cell line; format: cell-based, human; settings: normal foreskin fibroblasts, concentration reducing cell proliferation by 50%, 96 h
Protocol: (§1) Cell lines derived from human solid tumors were: Skin melanoma (SK-MEL-28); prostate carcinoma (DU-145). Normal tissues foreskin fibroblasts (CRL-7065) were also used. Cells were seeded at 1 × 10^5 cells/mL in 96 well plates in specific media supplemented with 10% FCS and antibiotics, as above. Cell cultures were then incubated at 37 °C in a humidified, 5% CO2 atmosphere in the absence or presence of serial dilutions of test compounds. Cell viability was determined after 96 h at 37 °C by the MTT method.

CCRF-CEM = assay: Antiproliferative assay (MTT); format: cell-based, human; settings: concentration reducing cell proliferation by 50%, 96 h, mean of three determinations
Protocol: (§2) Cell lines derived from human hematological tumors were: CD4+ human T-cells containing an integrated HTLV-1 genome (MT-4); CD4+ human acute T-lymphoblastic leukemia (CCRF-CEM); human splenic B-lymphoblastoid cells (WIL-2NS); human acute B-lymphoblastic leukemia (CCRF-SB). Cells were seeded at an initial density of 1 × 10^5 cells/mL in 96 well plates in RPMI-1640 medium supplemented with 10% fetal calf serum (FCS), 100 units/mL penicillin G and 100 μg/mL streptomycin.
as §1

WIL-2NS = assay: Antiproliferative assay (MTT); format: cell-based, human; settings: concentration reducing cell proliferation by 50%, 96 h, mean of three determinations
Protocol: as §2, §1

MT-4 = assay: Antiproliferative assay (MTT); format: cell-based, human; settings: concentration reducing cell proliferation by 50%, 96 h, mean of three determinations
Protocol: as §2, §1

CCRF-SB = assay: Antiproliferative assay (MTT); format: cell-based, human; settings: concentration reducing cell proliferation by 50%, 96 h, mean of three determinations
Protocol: as §2, §1

DU145 = assay: Antiproliferative assay (MTT); format: cell-based, human; settings: prostate carcinoma, concentration reducing cell proliferation by 50%, 96 h
Protocol: as §1

SK-MEL-28 = assay: Antiproliferative assay (MTT); format: cell-based, human; settings: skin melanoma, concentration reducing cell proliferation by 50%, 96 h
Protocol: as §1

HIV-1 IIIB = assay: Anti-HIV-1 activity: protection of MT-4 cells from virus-induced cytopathogenicity (MTT); format: cell-based, Human Immunodeficiency Virus type-1; settings: 50% protection of MT-4 cells from HIV-1 induced cytopathogenicity, MTT, 4-day incubation, read-out: HIV-1IIIB EC50
Description: (§3) Cell line supporting the multiplication of Human Immunodeficiency Virus type-1 (HIV-1) was the CD4+ human T-cells, derived from human hematological tumors, containing an integrated HTLV-1 genome (MT-4). Cells were purchased from American Type Culture Collection (ATCC). Human Immunodeficiency Virus type-1 (HIV-1) IIIB laboratory strain was obtained from the supernatant of the persistently infected H9/IIIB cells (NIH 1983).
The activity of compounds against HIV-1 was based on inhibition of virus-induced cytopathogenicity in MT-4 cell acutely infected with a multiplicity of infection (m.o.i.) of 0.01. Briefly, 50 μL of RPMI containing 1 × 10^4 MT-4 cells were added to each well of flat-bottom microtiter trays, containing 50 μL of RPMI without or with serial dilutions of test compounds. Then, 20 μL of a HIV-1 suspension containing 100 CCID50 were added. After a 4-day incubation at 37 °C, cell viability was determined by the MTT method.

MT-4 cells = assay: Cytotoxicity against mock-infected MT-4 cells (MTT); format: cell-based, human; settings: concentration reducing viability of mock-infected MT-4 cells by 50%, 96 h
Protocol: as §3
(§4) Exponentially growing MT-4 cells were seeded at an initial density of 1 × 10^5 cells/mL in 96-well plates in RPMI-1640 medium, supplemented with 10% fetal bovine serum (FBS), 100 units/mL penicillin G and 100 μg/mL streptomycin. Cell cultures were then incubated at 37 °C in a humidified, 5% CO2 atmosphere, in the absence or presence of serial dilutions of tested compounds. Cell viability was determined after 96 h at 37 °C by the 3-(4,5-dimethylthiazol-2-yl)-2,5-diphenyl-tetrazolium bromide (MTT) method.

[1] = as above; format: cell-based, human; settings: human, concentration reducing viability of mock-infected MT-4 cells by 50%
Protocol: as §3, §4

SMILES | EC50 (HIV-1 IIIB) | EC50 (HIV-1 IIIB; Human immunodeficiency virus 1, IIIB, MT4, 96 h) | CC50 (CRL7065) | CC50 (CCRF-CEM) | CC50 (WIL-2NS) | CC50 (MT-4) | CC50 (CCRF-SB) | CC50 (DU145) | CC50 (SK-MEL-28) | CC50 (MT-4 cells) | CC50 at 96 h [1]
CC[C@@]1(O)C(=O)OCc2c1cc1n(c2=O)Cc2cc3ccccc3nc2-1 [Camptotecin, reference compound] |  |  | 0.3 µM | 0.003 µM | 0.005 µM | 0.004 µM | 0.004 µM | 0.08 µM | 0.07 µM |  | 
O=[N+]([O-])c1cc(NC(=S)Nc2ccccc2Cl)ccc1Cl [Compound 1] | > 8.8 µM |  | 18 µM | 13 µM | 14 µM | 8.8 µM | 14 µM | 7.6 µM | 8.7 µM | 8.8 µM | 
O=[N+]([O-])c1cc(NC(=S)Nc2cccc(Cl)c2)ccc1Cl [Compound 2] | > 7 µM |  |  |  |  |  |  |  |  | 7 µM | 
O=[N+]([O-])c1cc(NC(=S)Nc2ccc(Cl)cc2)ccc1Cl [Compound 3] | > 7 µM |  |  |  |  |  |  |  |  | 7 µM | 
O=[N+]([O-])c1cc(NC(=S)Nc2ccccc2Br)ccc1Cl [Compound 4] |  |  | 20 µM | 22 µM | 30 µM | 9.6 µM | 22 µM | 8 µM | 15 µM | 9.6 µM | 
O=[N+]([O-])c1cc(NC(=S)Nc2cccc(Br)c2)ccc1Cl [Compound 5] | > 8 µM |  |  |  |  |  |  |  |  | 8 µM | 
O=[N+]([O-])c1cc(NC(=S)Nc2ccc(Br)cc2)ccc1Cl [Compound 6] | > 6.6 µM |  | 30 µM | 6 µM | 7 µM | 6.6 µM | 8 µM | 6 µM | 6 µM | 6.6 µM | 
O=[N+]([O-])c1cc(NC(=S)Nc2ccccc2F)ccc1Cl [Compound 7] | > 13 µM |  |  |  |  |  |  |  |  | 13 µM | 
O=[N+]([O-])c1cc(NC(=S)Nc2cccc(F)c2)ccc1Cl [Compound 8] | > 9 µM |  |  |  |  |  |  |  |  | 9 µM | 
O=[N+]([O-])c1cc(NC(=S)Nc2ccc(F)cc2)ccc1Cl [Compound 9] | > 7 µM |  | 22 µM | 9.1 µM | 11 µM | 7 µM | 9.4 µM | 8.4 µM | 20 µM | 7 µM | 
O=[N+]([O-])c1cc(NC(=S)Nc2ccc(F)c(Cl)c2)ccc1Cl [Compound 10] | > 7.3 µM |  | 16 µM | 5 µM | 7 µM | 7.3 µM | 8.8 µM | 6.5 µM | 6.6 µM | 7.3 µM | 

Now from value to compound, other results behind:

EC50 (HIV-1 IIIB) | EC50 (HIV-1 IIIB; Human immunodeficiency virus 1, IIIB, MT4, 96 h) | SMILES | CC50 (CRL7065) | CC50 (CCRF-CEM) | CC50 (WIL-2NS) | CC50 (MT-4) | CC50 (CCRF-SB) | CC50 (DU145) | CC50 (SK-MEL-28) | CC50 (MT-4 cells) | CC50 at 96 h [1]
> 8 µM |  | O=[N+]([O-])c1cc(NC(=S)Nc2ccc(Cl)cc2Cl)ccc1Cl [Compound 12] |  |  |  |  |  |  |  | 8 µM | 
> 8.2 µM |  | Cc1ccc(Cl)cc1NC(=S)Nc1ccc(Cl)c([N+](=O)[O-])c1 [Compound 14] | 18 µM | 9.4 µM | 10 µM | 8.2 µM | 9.8 µM | 7.8 µM | 9 µM | 8.2 µM | 
> 8 µM |  | O=[N+]([O-])c1cc(NC(=S)Nc2cccc(C(F)(F)F)c2)ccc1Cl [Compound 15] |  |  |  |  |  |  |  | 8 µM | 
> 7 µM |  | O=[N+]([O-])c1cc(NC(=S)Nc2ccc(C(F)(F)F)cc2)ccc1Cl [Compound 16] |  |  |  |  |  |  |  | 7 µM | 
> 7.8 µM |  | O=[N+]([O-])c1cc(NC(=S)Nc2ccc(I)cc2)ccc1Cl [Compound 17] | 30 µM | 6 µM | 7 µM | 7.8 µM | 8.3 µM | 11 µM | 6 µM | 7.8 µM | 
> 7 µM |  | O=[N+]([O-])c1ccc(NC(=S)Nc2ccc(Cl)c([N+](=O)[O-])c2)cc1 [Compound 18] |  |  |  |  |  |  |  | 7 µM | 
> 8.2 µM |  | N#Cc1ccc(NC(=S)Nc2ccc(Cl)c([N+](=O)[O-])c2)cc1 [Compound 19] | 20 µM | 9.1 µM | 10 µM | 8.2 µM | 9.2 µM | 8 µM | 9 µM | 8.2 µM | 
> 16.7 µM |  | CC(NC(=S)Nc1ccc(Cl)c([N+](=O)[O-])c1)c1ccccc1 (stereo not shown) [Compound 26] |  |  |  |  |  |  |  | 16.7 µM | 
 | 0.002 µM | O=C1Nc2ccc(Cl)cc2[C@@](C#CC2CC2)(C(F)(F)F)O1 [Efavirenz, reference compound] |  |  |  |  |  |  |  |  | 46 µM
